Values joined by “and” are separate entries in the source; they are usually repeats but may differ in a detail not shown here. Identical values can stand only once.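 Cells were grown in 96-well plates and exposed to each compound for 48 hours at five concentrations; endpoints were interpolated linearly between bracketing concentrations, or set to the highest concentration if not reached. At the GI50, growth is halved. TGI marks complete inhibition of growth.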
Columns and labels:
Experiment in all cases: NCI-60 cell line screen, 48 h
[1] = system: A498 renal
[2] = system: BT-549 breast
[3] = system: DU-145 prostate
[4] = system: HT29 colon
[5] = system: LOX IMVI melanoma
[6] = system: NCI/ADR-RES ovarian
[7] = system: PC-3 prostate
[8] = system: SK-MEL-28 melanoma
[9] = system: T-47D breast
[10] = system: U251 CNS

SMILES | TGI [1] | TGI [2] | TGI [3] | TGI [4] | TGI [5] | TGI [6] | TGI [7] | TGI [8] | TGI [9] | TGI [10] | GI50 [1] | GI50 [6] | GI50 [7] | GI50 [10] | GI50 [2] | GI50 [4] | GI50 [8] | GI50 [9]
CN(C)CCNc1nc2ccccc2c2c1C(=O)c1ccccc1-2 | 1.24 µM | 3.14 µM | 1.51 µM | 3.5 µM | 0.961 µM | 2.06 µM | 1.9 µM | 2.84 µM | 4.12 µM | 2.83 µM | – | – | – | – | – | – | – | –
CC(C)[Si]1(C(C)C)OCC2OC(n3cnc4c(N)ncnc43)C(N)C2O[Si](C(C)C)(C(C)C)O1 (centres undefined) | 45.5 µM | 14.3 µM | 31.4 µM | 26.9 µM | 21.3 µM | 20.7 µM | > 43 µM | > 72.1 µM | 30.5 µM | 35.8 µM | – | – | – | – | – | – | – | –
COc1ccccc1OC/C(N=Cc1ccncc1)=N/NC(=O)c1ccncc1 | > 100 µM | > 100 µM | > 100 µM | > 100 µM | > 100 µM | > 100 µM | > 100 µM | > 100 µM | > 100 µM | > 100 µM | – | – | – | – | – | – | – | –
c1ccc(COc2ncccc2C2SCCCS2)cc1 | > 100 µM | > 100 µM | > 100 µM | – | > 100 µM | > 100 µM | > 100 µM | > 100 µM | > 100 µM | > 100 µM | – | – | – | – | – | – | – | –
O=C1O/C(=C\c2ccc(O)cc2)C(c2ccc(O)c(Cl)c2)=C1Br | 34.6 µM | 23.8 µM | 27.6 µM | 29.9 µM | 61.2 µM | 65.4 µM | 23.7 µM | 26.2 µM | 62.9 µM | 34.5 µM | – | – | – | – | – | – | – | –
COC(=O)C(Cc1ccccc1)NC(=O)CCCNC(=O)OCc1ccccc1 (centres undefined) | – | > 100 µM | > 100 µM | > 100 µM | > 100 µM | > 100 µM | > 100 µM | > 100 µM | > 100 µM | > 100 µM | – | – | – | – | – | – | – | –
COC(=O)CNC(=O)/C=C/[C@H](O[Si](C)(C)C(C)(C)C)[C@H](/C=C/C(=O)NCC(=O)OC)O[Si](C)(C)C(C)(C)C | > 25 µM | > 25 µM | > 25 µM | > 25 µM | > 25 µM | > 25 µM | > 25 µM | > 25 µM | > 25 µM | > 25 µM | – | – | – | – | – | – | – | –
COc1cc(/C=C2\C[C@H]3[C@@H]4CC=C5C[C@@H](N6CCCC6)CC[C@]5(C)[C@H]4CC[C@]3(C)[C@H]2OC(C)=O)cc(OC)c1OC | 28.7 µM | 28.1 µM | 32.9 µM | 21.6 µM | – | 30.9 µM | 27.2 µM | 34.1 µM | 44.8 µM | 29.2 µM | – | – | – | – | – | – | – | –
C=CCN1C(=O)/C(=C/c2ccc(Cl)cc2)N=C1SC1OC(COC(C)=O)C(OC(C)=O)C(OC(C)=O)C1OC(C)=O (centres undefined) | > 100 µM and 73.7 µM | > 100 µM and 84.1 µM | > 100 µM | > 100 µM | > 100 µM and 89.8 µM | > 100 µM | > 100 µM | > 100 µM | 36.9 µM | 19.7 µM and > 100 µM | 80.5 µM and 31.1 µM | 11.5 µM and 31.7 µM | 9.17 µM and 31 µM | 5.23 µM and 30.1 µM | – | – | – | –
CN1C/C(=C\c2ccccc2[N+](=O)[O-])C(=O)/C(=C/c2ccccc2[N+](=O)[O-])C1 | 4.45 µM and 4.72 µM | 0.448 µM and 2.09 µM | 6.66 µM and 3.62 µM | 0.325 µM and 0.409 µM | – | > 28.1 µM and 29.4 µM | 6.45 µM and 3.29 µM | 3.15 µM and 4.18 µM | 4.47 µM and 2.08 µM | 3.83 µM and 3.86 µM | – | – | – | – | 0.149 µM and 0.626 µM | 0.173 µM and 0.169 µM | 0.906 µM and 1.83 µM | 1.01 µM and 0.354 µM
